Results as given in patent US7485315B2, “Compositions comprising a compound of low solubility and a lipophilic amino acid derivative, uses thereof and process for dissolving a compound of low solubility” (L'Oreal, priority 2001, dated 2009).

Legend:
[1] = Dissolution by lipophilic amino acid derivatives without recrystallization; type: physicochemical; details: in lipophilic amino acid derivatives, after 24 hours at 25° C.
Method: By way of illustration, the lipophilic amino acid derivatives used for the purposes of the present patent application allowed the dissolution of: • more than 20% of aminophenol derivatives without recrystallization after three weeks at 25° C., • more than 15% of salicylic acid derivatives without recrystallization after three weeks at 25° C. • about 4% of diosgenin or hecogenin acetate without recrystallization after 24 hours at 25° C.

[2] = Simple solubility in isopropyl N-lauroylsarcosinate
Method: Protocol: The derivatives of low solubility in water are weighed out and placed in a sealed pill bottle. The required amount of solvent is added. The suspension is stirred (magnetic stirring) at 80° C. for not more than 1 hour.
The non-solubility of the active agent in the solvent is characterized macroscopically by a precipitate or just a cloudy solution, and microscopically by the presence of crystals.
The solvent used is isopropyl N-lauroylsarcosinate.

[3] = content 2% in isopropyl N-lauroylsarcosinate
[4] = content 5% in isopropyl N-lauroylsarcosinate

In the case of `C[C@@H]1CC[C@@]2(OC1)O[C@H]1C[C@H]3[C@@H]4CC=C5C[C@@H](O)CC[C@]5(C)[C@H]4CC[C@]3(C)[C@H]1[C@@H]2C` [Diosgenin, 5-spirostene-3-β-ol], the “Amount dissolved without recrystallization” value [1] was “about 4%” and the “Stability over time at 25° C. (clear for)” value [2, 3] was “clear for 3 weeks”.

With `CCCCCCCC(=O)c1ccc(O)c(C(=O)O)c1` [5-n-octanoylsalicylic acid] the “Stability over time at 25° C. (clear for)” value [2, 4] was “clear for 7 days”, the “Stability over time at 25° C. (clear for)” value ([2]; content 9% in isopropyl N-lauroylsarcosinate) was “clear for 4 days” and the “Stability over time at 25° C.” value ([2]; content 27% in isopropyl N-lauroylsarcosinate) was “clear”.

For `CCCCCCCCCCCCNc1ccnc(N)[n+]1[O-]` [2-amino-4-dodecylaminopyrimidine 3-oxide], the “Stability over time at 25° C. (clear for)” value ([2]; content 1% in isopropyl N-lauroylsarcosinate) was “clear for 1 day”.

With `CC(=O)O[C@H]1CC[C@@]2(C)[C@@H](CC[C@@H]3[C@@H]2CC(=O)[C@]2(C)[C@@H]4[C@H](C[C@@H]32)O[C@]2(CC[C@@H](C)CO2)[C@H]4C)C1` [Hecogenin acetate, (3β, 5α, 25R)-3-hydroxyspirostan-12-one (hecogenin acetate)] the “Amount dissolved without recrystallization” value [1] was “about 4%” and the “Stability over time at 25° C. (clear for)” value [2, 3] was “clear for 1 day”.

With `CCOC(=O)Nc1ccc(O)cc1` [N-ethoxycarbonyl-para-aminophenol, N-ethoxycarbonyl-4-para-aminophenol] the “Stability over time at 25° C. (clear for)” value [2, 4] was “clear for 18 days”, the “Stability over time at 25° C. (clear for)” value ([2]; content 20% in isopropyl N-lauroylsarcosinate) was “clear for 6 days” and the “Stability over time at 25° C. (clear for)” value ([2]; content 23% in isopropyl N-lauroylsarcosinate) was “clear for 6 days”. For the same compound, the “Stability over time at 25° C. (clear for)” value ([2]; content 26% in isopropyl N-lauroylsarcosinate) was “clear for 1 day”.
